Read-outs that look alike come from different tables or passages of the source.
Experiments:
[1] = system: MV4-11 cells; assay: MV4-11 6-Day Cell Growth CTG (CellTiter-Glo) Assay; type: cell-based; conditions: Homo sapiens, MV4-11, 144 h, MV4-11 cell growth CellTiter-Glo, 6 days
Procedure, shortened: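 MV4-11 AML cells (RPMI 1640, 10% FBS) seeded at 300 cells/well and exposed for 6 days at 37 °C to a 12-point, 1:3 compound series starting at 50 μM final. Viable cells read by CellTiter-Glo luminescence; percent inhibition versus DMSO-only wells fitted to dose-response curves for IC50.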

[2] = molecular target: wild type MLL1 four-member complex (MLL1-4C) (Homo sapiens, UniProt Q03164); assay: MLL1 LC-MS Assay; type: biochemical
Procedure, shortened: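 Compound pre-incubated 20 min with MLL1-4C and SAM, then H3[1-21]-biotin (H3K4me0) substrate added; final 30 nM enzyme, 2.5 μM SAM, 10 μM peptide in Tris pH 8.0 with MgCl2, DTT, Tween 20, BSA. After 120 min at rt, TFA-quenched SAH quantified by LC-MS/MS with d4-SAH; IC50 from dose-response fit.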

[3] = molecular target: wild type MLL1 five-member complex (MLL1-5C) (Homo sapiens, UniProt Q03164); assay: MLL1 Flashplate Assay; type: biochemical; conditions: read-out: MLL1 flash plate
Method: MLL1 Flashplate Assay To assess the compound potency in MLL1 Flashplate assay, compounds were serially diluted 3-fold in DMSO to obtain a total of twelve concentrations. Then the test compounds at each concentration (250 nL of each) were transferred by Mosquito into Corning #3675 384-well plate. Solutions (15 μL) of 4.2 nM wild type MLL1 five-member complex (MLL1-5C) in the assay buffer (20 mM Tris-HCl, pH 8.0, 0.01% Tween 20, 1 mM DTT, 0.01% BSA) were added to the wells. A 10 μL solution of 2.5 μM of the peptide substrate H3K4me0 (histone H3[1-21]-Biotin) and 1.25 μM ^3H-SAM in the reaction buffer was then added to initiate each reaction. The final components in the reaction solution include 2.5 nM MLL1-5C, 0.5 μM ^3H-SAM, and 1 μM H3K4me0 with varying concentration of the compounds. A positive control consisted of 2.5 nM MLL1-5C, 0.5 μM ^3H-SAM, and 1 μM substrate in the absence of the test compound, and a negative control consisted of 0.5 μM ^3H-SAM, and 1 μM substrate only. Each reaction was incubated at rt for 90 min, then stopped by addition of 5 μL per of quench solution (0.5 mM SAM in assay buffer). 25 μL of each reaction solution was transferred to FlashPlate streptavidin 384-well microplate (PerkinElmer). After at least 1 h incubation at rt, the wells were washed three times with 0.1% Tween-20 in dH2O using the BioTek plate washer. The plates were then read in MicroBeta (PerkinElmer). The radioactive readouts were then normalized based on the values coming from the positive and negative controls to give percent enzyme activities. The data were then fit to a dose response equation using the program Helios to get the IC50 values of the test compounds.

[4] = system: H3K4me3 in MV4-11 cells; assay: MV4-11 H3K4me3 Cellular ELISA Assay; type: cell-based; conditions: Homo sapiens, MV4-11, 48 h
Procedure, shortened: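 MV4-11 cells were treated for 48 h with 12-point 1:3 compound dilutions (from 10 mM stock), then histones were acid-extracted with 0.5M HCl and neutralized. H3K4me3 and total H3 were measured by HRP chemiluminescent ELISA, and inhibition versus DMSO after H3 normalization was curve-fitted for IC50.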

Nc1ncnc2c1ncn2Cc1c(Br)cc2c(c1N1CCC(N)(C(=O)NC3CC3)C1)OCO2 (centres unmarked) [Example 31]
IC50 [1]: < 2000 nM
IC50 ([2]; read-out: LCMS): < 50 nM
IC50 [3]: < 60 nM
IC50 [4]: < 1900 nM

COC[C@@]1(N)CCN(c2cc(Cl)cc(Br)c2Cn2cnc3c(N)ncnc32)C1 [Example 32, (R)-9-(2-(3-amino-3-(methoxymethyl)pyrrolidin-1-yl)-6-bromo-4-chlorobenzyl)-9H-purin-6-amine]
IC50 [1]: > 3000 nM
IC50 ([2]; read-out: LCMS): > 100 nM
IC50 [3]: 60 to 100 nM
IC50 [4]: > 3000 nM

Nc1ncnc2c1ncn2Cc1c(Br)cc(Cl)c(Cl)c1N1CC[C@](N)(C(=O)NC2CC2)C1 [Example 43]
IC50 [1]: > 3000 nM
IC50 ([2]; read-out: LCMS): 50 to 100 nM
IC50 [3]: < 60 nM
IC50 [4]: > 3000 nM

Nc1ncnc2c1ncn2Cc1c(Br)c(Cl)c(Cl)c(Cl)c1N1CCC(N)(C(=O)NC2CC2)C1 (centres unmarked) [Example 44]
IC50 [1]: > 3000 nM
IC50 ([2]; read-out: LCMS): 50 to 100 nM
IC50 [3]: < 60 nM
IC50 [4]: < 1900 nM

CN(C)Cc1c(F)ccc(N2CC[C@](N)(C(=O)NC3CC3)C2)c1Cn1cnc2c(N)ncnc21 [Example 45, (R)-3-amino-1-(2-((6-amino-9H-purin-9-yl)methyl)-3-((dimethylamino)methyl)-4-fluorophenyl)-N-cyclopropylpyrrolidine-3-carboxamide]
IC50 [1]: < 2000 nM
IC50 ([2]; read-out: LCMS): 50 to 100 nM
IC50 [3]: > 100 nM
IC50 [4]: < 1900 nM

CN(C)Cc1c(F)cc(Cl)c(N2CC[C@](N)(C(=O)NC3CC3)C2)c1Cn1cnc2c(N)ncnc21 [Example 72, (R)-3-amino-1-(2-((6-amino-9H-purin-9-yl)methyl)-6-chloro-3-((dimethylamino)methyl)-4-fluorophenyl)-N-cyclopropylpyrrolidine-3-carboxamide]
IC50 ([2]; read-out: LCMS): > 100 nM
IC50 [3]: > 100 nM
IC50 [4]: > 3000 nM

Nc1ncnc2c1ncn2Cc1c(CN2CCOCC2)c(F)cc(Cl)c1N1CC[C@](N)(C(=O)NC2CC2)C1 [Example 75]
IC50 ([2]; read-out: LCMS): 50 to 100 nM
IC50 [3]: > 100 nM
IC50 [4]: > 3000 nM

Cn1nnnc1[C@@]1(N)CCN(c2cc(Cl)cc(Br)c2Cn2cnc3c(N)ncnc32)C1 [Example 90, (R)-9-(2-(3-amino-3-(1-methyl-1H-tetrazol-5-yl)pyrrolidin-1-yl)-6-bromo-4-chlorobenzyl)-9H-purin-6-amine]
IC50 ([2]; read-out: LCMS): < 50 nM
IC50 [3]: > 100 nM
IC50 [4]: > 3000 nM

CC1(C)Cc2ccc(N3CC[C@](N)(C(=O)NC4CC4)C3)c(Cn3cnc4c(N)ncnc43)c2O1 [Example 114]
IC50 ([2]; read-out: LCMS): > 100 nM
IC50 [3]: > 100 nM
IC50 [4]: > 3000 nM

Nc1ncnc2c1ncn2Cc1c(Br)cc2c(c1N1CCC(N)(C(=O)NC3CC3)C1)CCO2 (centres unmarked) [Example 115]
IC50 ([2]; read-out: LCMS): 50 to 100 nM
IC50 [3]: < 60 nM
IC50 [4]: > 3000 nM

C=Cc1c(Cl)ccc(N2CC[C@](N)(C(=O)NC3CC3)C2)c1Cn1cnc2c(N)ncnc21 [Example 163]
IC50 [1]: < 2000 nM
IC50 ([2]; read-out: MLL1 LCMS): < 50 nM
IC50 [4]: < 1900 nM

Nc1ncnc2c1ncn2Cc1c(Cl)cccc1N1CCC(N)(C(=O)NC2CC2)C1 (centres unmarked) [Example 164]
IC50 [1]: < 2000 nM
IC50 ([2]; read-out: MLL1 LCMS): 50 to 100 nM
IC50 [4]: < 1900 nM

CCc1c(Cl)ccc(N2CC[C@](N)(C(=O)NC3CC3)C2)c1Cn1cnc2c(N)ncnc21 [Example 165]
IC50 [1]: < 2000 nM
IC50 ([2]; read-out: MLL1 LCMS): 50 to 100 nM
IC50 [4]: < 1900 nM

COc1ccc(N2CC[C@](N)(C(=O)NC3CC3)C2)c(Cn2cnc3c(N)ncnc32)c1Br [Example 168]
IC50 [1]: < 2000 nM
IC50 ([2]; read-out: MLL1 LCMS): 50 to 100 nM
IC50 [4]: < 1900 nM

CCc1cccc(N2CC[C@](N)(C(=O)NC3CCCC3)C2)c1Cn1cnc2c(N)ncnc21 [Example 169]
IC50 [1]: < 2000 nM
IC50 ([2]; read-out: MLL1 LCMS): 50 to 100 nM
IC50 [4]: < 1900 nM

Reference: patent US20220380371A1, “MLL1 INHIBITORS AND ANTI-CANCER AGENTS” (NOVARTIS AG, priority 2019, published 2022)
